Data published in patent publication US12239132B2, “Compounds and methods for increasing soil nutrient availability” (SOUND AGRICULTURE COMPANY, priority 2018, dated 2025).
“Also recorded” adds a separate entry of the source.

How the values were obtained:
[1] = tested on: soil consortia cultures with corn plant; assay: Phosphate solubilization with corn (foliar spray or soil applied) in soil consortia cultures; assay type: in vivo, B73 Corn
Source text: In order to test the ability of AB09 to stimulate a phosphate solubilization phenotype when applied on plants versus directly into soil, a 3 week old corn plant was introduced into the soil consortia cultures. Approximately two weeks prior to the experiment, corn plants were removed from soil and roots were cleaned of potting soil. […] Corn leaves were sprayed with AB09 (roots protected with foil during spray application) and roots were placed in flasks of NBRIP liquid media and soil inoculant (FIG. 4B). The flasks were placed on a low speed orbital shaker under fluorescent lights and the media supernatant was tested for phosphate concentration after 24 h.
FIG. 4A illustrates that B73 Corn plants were grown until V3 growth stage, removed from soil, rinsed, and placed in tap water for 1.5 weeks to induce nutrient stress FIG. 4B illustrates that plants received either foliar (3 mL/plant using a fingertip sprayer) or soil applied treatments and were placed in 250 mL baffled flasks containing 50 mL NBRIP growth medium ([53 mM] Ca3(PO4)2) and 500 mg of 2 mm particle-sized soil. Flasks with treated corn and sterilized foam caps with were placed on orbital shakers at 100 RPM for 1 day at room temperature under fluorescent lights. FIG. 4C illustrates that orthophosphate was measured using the malachite-green phosphate method. […]

[2] = tested on: phosphate solubilizing bacteria (PSB); assay: Halo assay of phosphate solubilizing bacteria on agar plates containing insoluble phosphate; assay type: cell-based; settings: AB09 treated PSB vs control treated PSB
Source text: Larger halos indicate higher microbial solubilization activity.

lettuce = assay: Field trials in lettuce; assay type: in vivo; settings: field trial
soil consortia cultures = assay: Phosphate solubilization in soil-inoculated NBRIP cultures; assay type: cell-based
Experimental: To select for the native soil microbial consortia that solubilize phosphorus, a small quantity of soil was inoculated into flask cultures of NBRIP media. Flasks were treated with increasing amounts of AB09 and grown at room temperature on orbital shakers for 4 days. The cleared supernatant of the soil cultures were quantified for available phosphorus using the malachite green method.
FIG. 3. AB09 induced phosphate solubilization activity occurs in a dose-dependent manner in soil consortia cultures. 50 mL of NBRIP growth medium was added to 250 mL baffled flasks, containing 500 mg of 2 mm particle-sized soil, to select for phosphate solubilizing microbes. Flasks with sterilized foam caps were placed on orbital shakers at 110 RPM for 4 days at room temperature. Orthophosphate was measured using the malachite-green phosphate method.
50 mL of NBRIP growth medium was added to 250 mL baffled flasks, containing 500 mg of 2 mm particle-sized soil, to select for phosphate solubilizing microbes. AB09 stock solution (10 mg/mL) was prepared in distilled water. Untreated controls received no AB09. […]
Flasks with sterilized foam caps were placed on orbital shakers at 110 RPM for 4 days at room temperature. […] Supernatant from samples were removed and placed into new microcentrifuge tubes for orthophosphate quantification using the malachite green method.

[3] = Field trial of soil phosphate depletion on Iowa farmland; assay type: in vivo; settings: Iowa field plots, vs untreated plots
Experimental: Available soil phosphate was measured at the beginning of the growing season (Pre VT) and at the end of the growing season (Post VT).
The solubilizing activity of AB09 was measured in field trials on Iowa farmland. Over the course of a growing season, plants pull available phosphate from the soil, resulting in lower levels at the end of the season versus at the beginning. This phosphate depletion can be measured with standard soil tests.

CC1=CC(Oc2c(C)occc2=O)OC1=O (centres unmarked) [AB09, maltol lactone]
phosphate solubilization, treatment directly applied to the soil supernatant ([1]; corn roots in NBRIP with soil inoculant, after 24 h): increase | phosphate solubilization, treatment applied to corn leaves as a foliar spray ([1]; two treatment doses (25 or 50 ug/mL, 3 mL/plant), media supernatant after 24 h): increase | clearance halos around PSB colony [2]: larger clearance | average size of lettuce heads (lettuce): increased the average size | increase in lettuce harvest weight (lettuce): 25% | increase of phosphate concentration over the untreated control (soil consortia cultures; highest treatment 25 ug/mL, 4 days, room temperature): 2-3 fold | ability of soil consortia cultures to solubilize phosphorus (soil consortia cultures; increasing amounts of AB09, 4 days): enhanced by AB09 in a dose-responsive manner | soil phosphate depletion over the growing season (pre VT to post VT) [3]: less phosphate depletion; also recorded: significantly reduced
